# Laboratory results taken from US9675065B2 (priority 2011, dated 2017).
# Entries after “also recorded” stand apart in the source; their conditions may differ.
# Legend:
# [1] = 10 ml of 5 wt % stock solution + 100 microliters acidified silver chloride, ceramic cylinder
# [2] = system: S. aureus (Staphylococcus aureus ATCC#6538); assay type: cell-based
# Staphylococcus aureus = assay type: cell-based; details: pH 7
gas formation on the test cylinder [1],Compound,rate of kill / biocide efficacy (in words) [2],biocide efficacy (in words) (Staphylococcus aureus)
slow formation of gas,OO [hydrogen peroxide],,
,furoyl chlorate,excellent rate of kill; also recorded: excellent biocide efficacy,no antimicrobial efficacy
